Measurements as given in patent publication US12071469B2, “Peptide compounds for suppressing inflammation” (Duke University, priority 2011, dated 2024).
“And” between values parts separate entries of the source, which are not always exact repeats. Equal values may be shown once.

Experiments:
mice with blast injury = assay: Morris water maze after blast injury (shock tube blast model); assay type: in vivo, mouse
Experimental: Another experimental procedure for measuring neurological deficits was developed using a Morris water maze. The procedure used a black aluminum pool containing a movable platform (7.5 cm diameter) and filled with 25-27° C. water opacified with powdered milk. Each training or testing session consisted of four trials per day with an interval of 20-30 minutes between trials. One day before testing, mice were trained using a visible platform (platform flagged and located in a different quadrant each trial to minimize quadrant habituation, no extra-maze visual cues) to habituate the mice to handling and swimming and to teach the mice the goal of the test-escaping the water by climbing on the platform. […] Latency to finding the platform and swimming speed were recorded using a computerized video tracking system (Ethovision 2.2.14; available from Noldus Information Technology, Leesburg VA). […]
The shock tube was mounted vertically on an extruded aluminum frame using three vibration-damping U-bolts. […] Peak incident overpressure, positive-phase duration, and peak incident impulse were recorded in the three end-tube PTs for each test (data not shown). […] Atmospheric conditions (temperature, barometric pressure, humidity) were recorded prior to each test. […]

[1] = Mouse brain PK of VSRRR (CNS penetration) by LC/MS; assay type: in vivo; conditions: for Brain Pilot, Ratio to Heavy / Brain Pilot, fmol/mg (tissue) / Brain Pilot, pg/mg (tissue): individual mouse brains, single-point internal standard quantitation; for Single-Dosed Brain PK, fmol analyte/mg tissue / Single-Dosed Brain PK, pg/mg of tissue: single dose 0.8 mg/kg, average of 5 animals
Experimental: Mouse Brain PK on Therapeutic Peptide, VSRRR—Sample Preparation Procedure
Mice brains were weighed in a 1.5 mL Eppendorf tube. The entire brain was transferred to a 14 mL culture tube. 1 mL of 8 M urea in 50 mM ammonium formate (pH 10) with 2.5 pmol/mL SIL peptide per 100 mg wet tissue weight was added. For standard controls and QCs, 10 μL of peptide standard per every 100 mg of brain tissue (1%) was added with 990 μL of the aforementioned buffer to bring to a 1 mL total volume for every 100 mg of tissue. A tissue tearor was used on each sample for about 20 sec. 1.5 mL of the sample was transferred to a 2-mL Eppendorf tube. Each sample was probe sonicated for 3 bursts of 5 sec per burst. The sample was then heated at 37° C. for 30 min. The sample was centrifuged for 30 min at 15,000 rpm. Very little precipitate was visible at the bottom of each tube and avoided when pipetting 1 mL of the sample (out of 1.5 mL total volume) and placing directly onto an OASIS® plate. Salts and proteins were removed using the OASIS® HLB Solid Phase Extraction (SPE) protocol described above for the plasma sample. After the extraction, the samples were dried down in a Speed Vac and reconstitute in 25 μL of 1% ACN/0.1% TFA/0.02% HFBA. 3 μL of the sample was injected into a SYNAPT™ G2 HDMS™ (Waters Corp.) using Full Scan MS method, with a run time of 16.5 min total. Peptide(s) of interest were monitored between 3-8 min.
Table 5 and FIG. 10 show the average amount of peptide in the CNS sample from 5 animals over time after a single dosing of 0.8 mg/kg of the peptide.
The analyte concentrations were calculated from a single-point internal standard quantitation. […] The analyte concentrations were calculated from a 7-point standard curve calibration curve equation generated with samples between 1.4 pg analyte/mg tissue and 89.2 pg/mg (2× serial dilutions). The inter-animal reproducibility for the brain analyses is high ([…] 21% CV). The drug molecule in the single-dosed brain Cmax is about 9 pg analyte/mg tissue.

## Ac-VSRRR-NH2 [VR-55, Ac-VSRRR-NH2]
Mice with blast injury; FIG. 8, groups of 15
  neurocognitive deficit after blast injury (Morris water maze): reduces neurocognitive deficit after blast injury
Mice with blast injury; blast injury, vehicle 17.8±1.9 seconds, p=0.24
  time in the correct quadrant (probe trial): 21.8 ± 2.7 s
[1]; 3 min
  Brain Pilot, Ratio to Heavy: 0.245 and 0.371
  Brain Pilot, fmol/mg (tissue): 15 fmol/mg (tissue) and 23 fmol/mg (tissue)
  Brain Pilot, pg/mg (tissue): 11 pg/mg (tissue) and 17 pg/mg (tissue)
[1]; 10 min
  Brain Pilot, Ratio to Heavy: 0.157 and 0.435
  Brain Pilot, fmol/mg (tissue): 10 fmol/mg (tissue) and 27 fmol/mg (tissue)
  Brain Pilot, pg/mg (tissue): 7 pg/mg (tissue) and 19 pg/mg (tissue)
[1]; mouse brain, single dose
  single-dosed brain Cmax: about 9 pg analyte/mg tissue
[1]; mouse brain, 1 min
  Single-Dosed Brain PK, fmol analyte/mg tissue: 10.91 fmol analyte/mg tissue
  Single-Dosed Brain PK, pg/mg of tissue: 7.79 pg/mg of tissue
[1]; mouse brain, 3 min
  Single-Dosed Brain PK, fmol analyte/mg tissue: 12.30 fmol analyte/mg tissue
  Single-Dosed Brain PK, pg/mg of tissue: 8.79 pg/mg of tissue
[1]; mouse brain, 5 min
  Single-Dosed Brain PK, fmol analyte/mg tissue: 11.26 fmol analyte/mg tissue
  Single-Dosed Brain PK, pg/mg of tissue: 8.04 pg/mg of tissue
[1]; mouse brain, 10 min
  Single-Dosed Brain PK, fmol analyte/mg tissue: 11.83 fmol analyte/mg tissue
  Single-Dosed Brain PK, pg/mg of tissue: 8.44 pg/mg of tissue
[1]; mouse brain, 15 min
  Single-Dosed Brain PK, fmol analyte/mg tissue: 10.56 fmol analyte/mg tissue
  Single-Dosed Brain PK, pg/mg of tissue: 7.54 pg/mg of tissue
[1]; mouse brain, 30 min
  Single-Dosed Brain PK, fmol analyte/mg tissue: 8.87 fmol analyte/mg tissue
  Single-Dosed Brain PK, pg/mg of tissue: 6.33 pg/mg of tissue
[1]; mouse brain, 60 min
  Single-Dosed Brain PK, fmol analyte/mg tissue: 7.64 fmol analyte/mg tissue
  Single-Dosed Brain PK, pg/mg of tissue: 5.46 pg/mg of tissue
[1]; preliminary data, brain pilot
  CNS penetration: CNS penetration
